Patent US20230255864A1, “NOVEL COMPOSITIONS COMBINING HEMP DERIVATIVES AND AT LEAST ONE PEPTIDE AND USE THEREOF” (FRANCE COSMEPHYL-LAB, priority 2020, published 2023)
Where “and” joins values, the source holds several entries; their conditions need not be identical. Identical values can stand only once.

Test system: murine macrophages (RAW 267.4 cell line) stimulated with LPS from E. coli
Assay: In vitro anti-inflammatory test: inhibition of NO production in LPS-stimulated murine macrophages (Griess reaction)
Format: cell-based
Settings: for Anti-inflammatory ratio: ratio between anti-inflammatory activity and toxicity (IC50 NO release and IC50 cell viability)
Description: Low-grade inflammation is strongly implicated in degenerative processes in human skin such as photoaging and atopy. The reduction of low-intensity inflammatory reactions by topical products may be necessary in the event of cutaneous aggression, to obtain optimal healing and restore the physiological balance of human skin. In order to identify new anti-inflammatory candidates, an in vitro anti-inflammatory test was developed with a murine cell line: the murine macrophage test RAW 267.4. This test was used to monitor the inhibitory effects of chemical compounds or natural extracts on the low-intensity inflammatory cascade leading to overproduction of nitrogen oxide (NO) in the endothelial wall of blood vessels.
The study was carried out to evaluate the ability of cannabidiol, palmitoyl tripeptide-8 (active ingredient in Neutrazen™), and their mixture to inhibit the pro-inflammatory cascade leading to the production of NO in murine macrophages stimulated by liposaccharides (LPS).
The in vitro anti-inflammatory test is based on the ability of murine macrophages to generate a strong inflammatory response when stimulated by antigens such as LPS. Immobilized murine macrophages (RAW 267.4 cell line) are stimulated with LPS from E. coli and exposed for 24 hours. At the end of the incubation period, the production of NO is evaluated indirectly by measuring the accumulation of nitrite/nitrate, stable final products of the oxidation of NO, in the culture medium using a method spectrophotometric based on the Griess reaction.
MURINS RAW 267.4 Macrophage cell line (Sigma-Aldrich, No. P6110401, Lot. 091006), low number of passages (less than 50).
Complete medium: DMEM with stabilized L-glutamine (Dulbecco's Minimum Essential Medium, PAN BIOTECH. Lot 974251) supplemented with Penicillin 100 IU/ml and streptomycin 100 μg/m1 (PAN BIOTECH, Lot 225614), and 10% inactivated calf serum (PAN BIOTECH, Lot P460518), pH 7.2, freshly prepared, stored for less than 3 weeks.
Cannabidiol (CBD) is diluted in DMSO (10 mg/mL storage solution), and subjected to an ultrasonic bath for 20 minutes. The Neutrazen™ solution is diluted in PBS (Phosphate buffer saline, Sigma-Aldrich).
The negative control: DMSO 1% The positive control: Dexamethasone (Sigma-Aldrich) 1-5-10-50-100 μM.
RAW 267.4 murine macrophages were inoculated into 48-well tissue culture plates at a concentration of 1.10^5 cells/ml (200 μl/well) and incubated for 24 hours at 37° C. (5% CO2).
At the end of the incubation period, the culture medium was replaced with 200 μl of medium containing the appropriate concentrations of the material to be tested, and the cells were incubated at 37° C. (5% CO2) for one hour.
At the end of the incubation period, pro-inflammatory E. coli LPS was added to the cell cultures (1 μg/ml. Then the cells were incubated at 37° C. (5% CO2) for 24 hours.
The amount of NO released was measured in the culture supernatant by the Griess reaction. 100 μl of the supernatants were transferred into the wells of a 96-well tissue culture plate, and modified Griess reagent (SIGMA-ALDRICH) were added to each well. After a period of 15 min at room temperature, the Optical Density (OD) of each well was read at a wavelength of 540 nm by an Infinite M200 Pro fluorescence-luminescence reader (TECAN).
The concentrations of test material causing a 50% decrease in NO release (IC50 (NO release)) and a 50% decrease in cell viability (IC50 (cell viability)) respectively were calculated using TableCurve software Version 2.0.
The anti-inflammatory ratio corresponds to the ratio between anti-inflammatory activity and toxicity. It is expressed as follows: […]
Analysis of the anti-inflammatory activity and of the cell viability of the cannabidiol/palmitoyl tripeptide-8 (Neutrazen™) association in a mixture by isobologram analysis.

SMILES: C=C(C)[C@@H]1CCC(C)=C[C@H]1c1c(O)cc(CCCCC)cc1O [CBD]
- NO production (% as compared to the negative control) (CBD 0.01 weight % in mixture with NeutraZen 0.01%): 94.48% and 98.73% and 100.63%
- NO production (% as compared to the negative control) (CBD 0.01 weight % in mixture with NeutraZen 0.025%): 98.77% and 101.91% and 100.00%
- NO production (% as compared to the negative control) (CBD 0.01 weight % in mixture with NeutraZen 0.05%): 100.00% and 103.82% and 103.16%
- NO production (% as compared to the negative control) (CBD 0.01 weight % in mixture with NeutraZen 0.1%): 101.23% and 103.82% and 98.10%
- NO production (% as compared to the negative control) (CBD 0.025 weight % in mixture with NeutraZen 0.01%): 87.12% and 89.17% and 92.41%
- NO production (% as compared to the negative control) (CBD 0.025 weight % in mixture with NeutraZen 0.025%): 92.64% and 96.18% and 96.84%
- NO production (% as compared to the negative control) (CBD 0.025 weight % in mixture with NeutraZen 0.05%): 93.87% and 100.00% and 98.10%
- NO production (% as compared to the negative control) (CBD 0.025 weight % in mixture with NeutraZen 0.1%): 103.07% and 101.27% and 100.63%
- NO production (% as compared to the negative control) (CBD 0.05 weight % in mixture with NeutraZen 0.01%): 84.66% and 85.99% and 88.61%
- NO production (% as compared to the negative control) (CBD 0.05 weight % in mixture with NeutraZen 0.025%): 84.66% and 87.90% and 87.34%
- NO production (% as compared to the negative control) (CBD 0.05 weight % in mixture with NeutraZen 0.05%): 84.05% and 86.62% and 87.97%
- NO production (% as compared to the negative control) (CBD 0.05 weight % in mixture with NeutraZen 0.1%): 79.75% and 84.71% and 82.28%
- NO production (% as compared to the negative control) (CBD 0.1 weight % in mixture with NeutraZen 0.01%): 80.37% and 77.07% and 85.44%
- NO production (% as compared to the negative control) (CBD 0.1 weight % in mixture with NeutraZen 0.025%): 79.75% and 80.89% and 82.28%
- NO production (% as compared to the negative control) (CBD 0.1 weight % in mixture with NeutraZen 0.05%): 79.75% and 79.62% and 83.54%
- NO production (% as compared to the negative control) (CBD 0.1 weight % in mixture with NeutraZen 0.1%): 72.39% and 74.52% and 74.68%
- NO production (% as compared to the negative control) (CBD 0.25 weight % in mixture with NeutraZen 0.01%): 53.37% and 61.15% and 60.76%
- NO production (% as compared to the negative control) (CBD 0.25 weight % in mixture with NeutraZen 0.025%): 47.24% and 49.04% and 51.90%
- NO production (% as compared to the negative control) (CBD 0.25 weight % in mixture with NeutraZen 0.05%): 47.24% and 52.87% and 47.47%
- NO production (% as compared to the negative control) (CBD 0.25 weight % in mixture with NeutraZen 0.1%): 50.92% and 43.95% and 50.00%
- NO production (% as compared to the negative control) (CBD 0.5 weight % in mixture with NeutraZen 0.01%): 0% and 0.63%
- NO production (% as compared to the negative control) (CBD 0.5 weight % in mixture with NeutraZen 0.025%): 0%
- NO production (% as compared to the negative control) (CBD 0.5 weight % in mixture with NeutraZen 0.05%): 0% and 4.46% and 1.27%
- NO production (% as compared to the negative control) (CBD 0.5 weight % in mixture with NeutraZen 0.1%): 0% and 1.27%
- NO production (% as compared to the negative control) (CBD 1 weight % in mixture with NeutraZen 0.01%): 0%
- NO production (% as compared to the negative control) (CBD 1 weight % in mixture with NeutraZen 0.025%): 0%
- NO production (% as compared to the negative control) (CBD 1 weight % in mixture with NeutraZen 0.05%): 0%
- NO production (% as compared to the negative control) (CBD 1 weight % in mixture with NeutraZen 0.1%): 0%
- NO production (% as compared to the negative control) (CBD 2.5 weight % in mixture with NeutraZen 0.01%): 0%
- NO production (% as compared to the negative control) (CBD 2.5 weight % in mixture with NeutraZen 0.025%): 0%
- NO production (% as compared to the negative control) (CBD 2.5 weight % in mixture with NeutraZen 0.05%): 0%
- NO production (% as compared to the negative control) (CBD 2.5 weight % in mixture with NeutraZen 0.1%): 0%
- IC50-NO release (non-linear regression of 3 series of experiments, weight %, for mixtures CBD concentration at the fixed Neutrazen concentration): 0.319 ± 0.006%
- Anti-inflammatory ratio: <1
- Anti-inflammatory ratio (listed as cannabidiol): less than 1
- NO production (% as compared to the negative control) (sample alone at 0.01 weight %): 99.39% and 100.64% and 102.53%
- NO production (% as compared to the negative control) (sample alone at 0.025 weight %): 96.93% and 97.45% and 98.10%
- NO production (% as compared to the negative control) (sample alone at 0.05 weight %): 97.55% and 89.17% and 93.04%
- NO production (% as compared to the negative control) (sample alone at 0.1 weight %): 95.09% and 99.36% and 99.37%
- NO production (% as compared to the negative control) (sample alone at 0.25 weight %): 77.91% and 80.25% and 81.65%
- NO production (% as compared to the negative control) (sample alone at 0.5 weight %): 2.45% and 5.10% and 2.53%
- NO production (% as compared to the negative control) (sample alone at 1 weight %): 0.61% and 1.91% and 1.90%
- NO production (% as compared to the negative control) (sample alone at 2.5 weight %): 0.00% and 2.55% and 1.27%
